Data: ChEMBL document CHEMBL5505979, “Novel aminothiazoximone-corbelled ethoxycarbonylpyrimidones with antibiofilm activity to conquer Gram-negative bacteria through potential multitargeting effects” (Eur J Med Chem, 2024)
Values after ≈ are worked out from the molar mass of the structure shown. Active and inactive are the calls of the source. The calls are words filed in the database; no cut-off is given here.

Legend:
Pseudomonas aeruginosa [1] = assay: Anti-bacterial activity against Pseudomonas aeruginosa ST235 assessed as inhibition of bacterial growth; type: functional; conditions: Pseudomonas aeruginosa, ST235; read-out: MIC
Escherichia coli [2] = assay: Anti-bacterial activity against Escherichia coli ATCC 25922 assessed as inhibition of bacterial growth measured after 20 passages at sub-MIC concentration by multiple resistance study; type: functional, organism-based
Escherichia coli [3] = assay: Reduction in metabolic activity of Escherichia coli ATCC 25922 assessed as decrease in fluorescence intensity at 1/4 to 8 times of MIC measured after 6 hrs by resazurin sodium salt assay; type: functional, organism-based
Staphylococcus aureus [4] = assay: Anti-bacterial activity against methicillin-resistant Staphylococcus aureus ATCC 43300 assessed as inhibition of bacterial growth; type: functional; conditions: Staphylococcus aureus, ATCC 43300; read-out: MIC
Acinetobacter baumannii [5] = assay: Anti-bacterial activity against Acinetobacter baumannii assessed as growth inhibition by measuring optical density measured at 4 time of MIC in presence of 1 times of MIC of norfloxacin by Checkerboard assay (reference value: 0.152); type: functional
Escherichia coli [6] = assay: Anti-bacterial activity against Escherichia coli ATCC 25922 assessed as growth inhibition by measuring optical density measured at 4 time of MIC in presence of 1/4 times of MIC of norfloxacin by Checkerboard assay (reference value: 0.125); type: functional
Escherichia coli [7] = assay: Reduction of biofilm virulent factors in Escherichia coli ATCC 25922 assessed as decrease in extracellular polymeric substances (EPS) by measuring optical density at 490 nm at 1/4 times of MIC concentration by congo red binding assay (reference value: 0.028 to 0.031); type: functional
Acinetobacter baumannii [8] = assay: Anti-bacterial activity against Acinetobacter baumannii assessed as growth inhibition by measuring optical density measured at 1/4 time of MIC in presence of 1/4 times of MIC of norfloxacin by Checkerboard assay (reference value: 0.152); type: functional
Cell membrane = assay: Induction of physical destruction of cell membrane in Acinetobacter baumannii assessed as leakage of nucleic acid by measuring absorbance of 260 nm at 1/4 to 8 times of MIC concentration; type: cell membranes
Escherichia coli [9] = assay: Antibiofilm activity against Escherichia coli ATCC 25922 assessed as reduction of self-aggregation; type: functional, organism-based
Escherichia coli [10] = assay: Bactericidal activity against Escherichia coli ATCC 25922 assessed as bacterial killing at 1 to 8 times of MIC concentration measured upto 8 hrs by time-kill kinetics assay; type: functional, organism-based
Pseudomonas aeruginosa [11] = assay: Anti-bacterial activity against Pseudomonas aeruginosa ATCC 15442 assessed as inhibition of bacterial growth; type: functional; conditions: Pseudomonas aeruginosa, ATCC 15442; read-out: MIC
Staphylococcus aureus [12] = assay: Anti-bacterial activity against Staphylococcus aureus ATCC 1708 assessed as inhibition of bacterial growth; type: functional; conditions: Staphylococcus aureus, ATCC 1708; read-out: MIC
Acinetobacter baumannii [13] = assay: Anti-bacterial activity against Acinetobacter baumannii assessed as growth inhibition by measuring optical density measured at 1/4 time of MIC in presence of 1/2 times of MIC of norfloxacin by Checkerboard assay (reference value: 0.152); type: functional
Acinetobacter baumannii [14] = assay: Induction of intracellular ROS accumulation in Acinetobacter baumannii assessed as fluorescence intensity at 1/4 to 2 times of MIC by DCFH-DA staining based assay; type: functional, organism-based
Calf thymus DNA = assay: Binding affinity to calf thymus DNA assessed as compound/DNA binary complex by measuring increase in absorption at 260 nm by UV-vis/fluorescence spectroscopy; type: nucleic-acid assay; conditions: Bos taurus
Acinetobacter baumannii [15] = assay: Anti-bacterial activity against Acinetobacter baumannii assessed as growth inhibition by measuring optical density measured at 1/2 time of MIC in presence of 1/4 times of MIC of norfloxacin by Checkerboard assay (reference value: 0.152); type: functional
Escherichia coli [16] = assay: Anti-bacterial activity against Escherichia coli ATCC 25922 assessed as growth inhibition by measuring optical density measured at 1/2 time of MIC in presence of 1/8 times of MIC of norfloxacin by Checkerboard assay (reference value: 0.124); type: functional
Acinetobacter baumannii [17] = assay: Anti-bacterial activity against Acinetobacter baumannii assessed as fractional inhibitory concentration measured upto 9 hrs in presence of norfloxacin; type: functional
Escherichia coli [18] = assay: Anti-bacterial activity against Escherichia coli ATCC 25922 assessed as growth inhibition by measuring optical density measured at 2 time of MIC in presence of 2 times of MIC of norfloxacin by Checkerboard assay (reference value: 0.128); type: functional
Staphylococcus aureus [19] = assay: Anti-bacterial activity against Staphylococcus aureus ATCC 6538 assessed as inhibition of bacterial growth; type: functional
Escherichia coli [20] = assay: Anti-bacterial activity against Escherichia coli ATCC 25922 assessed as growth inhibition by measuring optical density measured at 4 time of MIC in presence of 2 times of MIC of norfloxacin by Checkerboard assay (reference value: 0.125); type: functional
Acinetobacter baumannii [21] = assay: Anti-bacterial activity against Acinetobacter baumannii assessed as growth inhibition by measuring optical density measured at 2 time of MIC in presence of 1/2 times of MIC of norfloxacin by Checkerboard assay (reference value: 0.155); type: functional
Candida albicans = assay: Anti-fungal activity against Candida albicans 90023 assessed as inhibition of fungal growth; type: functional
Acinetobacter baumannii [22] = assay: Reduction of biofilm virulent factors in Acinetobacter baumannii assessed as decrease in extracellular polymeric substances (EPS) at 4 times of MIC concentration by congo red binding assay relative to control; type: functional; set-up: scale not given: the % may be the effect or the level left
[23] = Hemolysis in human RBC assessed as morphological changes of RBC by measuring intact/smooth surface rounded cell surface at 128 times of MIC concentration for 6 hrs by microscopic analysis; type: toxicity, cell-based; conditions: erythrocyte
Acinetobacter baumannii [24] = assay: Antibiofilm activity against Acinetobacter baumannii assessed as inhibition rate of bio-film formation at 0.5 times of MIC concentration by Crystal violet assay relative to control; type: functional
Acinetobacter baumannii [25] = assay: Anti-bacterial activity against Acinetobacter baumannii assessed as growth inhibition by measuring optical density measured at 1/2 time of MIC in presence of 1/8 times of MIC of norfloxacin by Checkerboard assay (reference value: 0.152); type: functional
BEAS-2B = assay: Cytotoxicity against human BEAS-2B cells assessed as cell viability at 0.064 mmol/L measured after 24 hrs; type: toxicity, cell-based; conditions: 64 µM
Escherichia coli [26] = assay: Anti-bacterial activity against Escherichia coli ATCC 25922 assessed as growth inhibition by measuring optical density measured at 1/4 time of MIC in presence of 2 times of MIC of norfloxacin by Checkerboard assay (reference value: 0.128); type: functional
Staphylococcus aureus [27] = assay: Anti-bacterial activity against Staphylococcus aureus ATCC 25923 assessed as inhibition of bacterial growth; type: functional; conditions: Staphylococcus aureus, ATCC 25923; read-out: MIC
[28] = Hemolysis in human RBC assessed as hemolysis rate at 128 times of MIC concentration for 6 hrs; type: toxicity, cell-based, Erythrocyte; conditions: red blood cells, read-out: Activity
Escherichia coli [29] = assay: Anti-bacterial activity against Escherichia coli ATCC 25922 assessed as growth inhibition by measuring optical density measured at 1/2 time of MIC in presence of 1/4 times of MIC of norfloxacin by Checkerboard assay (reference value: 0.124); type: functional
Acinetobacter baumannii [30] = assay: Antibiofilm activity against Acinetobacter baumannii assessed as inhibition rate of bio-film formation at 8 times of MIC concentration in presence of sodium dodecyl sulfate by Crystal violet assay relative to control; type: functional, organism-based

## CCCCc1nc(Cl)c(C2NC(=O)NC(CN3CCN(C(=O)/C(=N/OC)c4csc(N)n4)CC3)=C2C(=O)OCC)[nH]1 (centres undefined)
Pseudomonas aeruginosa [1]
  MIC: 26 µM (≈ 15.8 µg/mL)
Escherichia coli [2]
  Activity: Active
Escherichia coli [3]
  Activity: Active
Staphylococcus aureus [4]
  MIC: 13 µM (≈ 7.91 µg/mL)
Acinetobacter baumannii [5]
  OD: 0.051
Escherichia coli [6]
  OD: 0.051
Escherichia coli [7]
  OD: 0.12
Acinetobacter baumannii [8]
  OD: 0.129
Cell membrane
  Activity: Active
Escherichia coli [9]
  Activity: Dose-Dependent Effect
Escherichia coli [10]
  Activity: Active
Pseudomonas aeruginosa [11]
  MIC: 26 µM (≈ 15.8 µg/mL)
Staphylococcus aureus [12]
  MIC: 13 µM (≈ 7.91 µg/mL)
Acinetobacter baumannii [13]
  OD: 0.125
Acinetobacter baumannii [14]
  Activity: Active
Calf thymus DNA
  Activity: Active
Acinetobacter baumannii [15]
  OD: 0.119
Escherichia coli [16]
  OD: 0.117
Acinetobacter baumannii [17]
  FIC: 0.5
Escherichia coli [18]
  OD: 0.052
Staphylococcus aureus [19]
  MIC: 7 µM (≈ 4.26 µg/mL)
Escherichia coli [20]
  OD: 0.051
Acinetobacter baumannii [21]
  OD: 0.05
Candida albicans
  MIC: 53 µM (≈ 32.2 µg/mL)
Acinetobacter baumannii [22]
  Activity: 52.4%
[23]
  Activity: Non-Toxic
Acinetobacter baumannii [24]
  inhibition (INH): 23.5%
Acinetobacter baumannii [25]
  OD: 0.117
BEAS-2B
  Activity: Non-Toxic
Escherichia coli [26]
  OD: 0.078
Staphylococcus aureus [27]
  MIC: 7 µM (≈ 4.26 µg/mL)
[28]
  hemolysis at 6 h, 128 x MIC: 0.8%
Escherichia coli [29]
  OD: 0.118
Acinetobacter baumannii [30]
  Activity: Active
